Results reported in patent US10376520B2, “Methods for the treatment of cardiovascular disorders” (Galapagos NV, priority 2015, dated 2019).

System: RA patients
Test: Atherogenic index, Study 2 (RA patients, monotherapy)
Type: in vivo, human
Protocol: As used herein, the term ‘atherogenic index’ refers to
Double-blind, placebo-controlled, monotherapy study in subjects with moderately to severely active RA who have an inadequate response to methotrexate (MTX) (oral or parenteral).
Twelve weeks of treatment with Compound 1 (dosed as a [Compound 1:HCl:3H2O]) at 50 mg, 100 mg, or 200 mg q.d.; or placebo. At Week 12, all subjects on placebo and the subjects on the 50 mg dose who have not achieved 20% improvement in swollen joint count (SJC66) and tender joint count (TJC68) will be assigned to 100 mg q.d. in a blinded fashion and will continue treatment until Week 24. Subjects in the other groups will maintain their randomized treatment until Week 24.
The atherogenic index has been identified to be a good predictor of cardiovascular disorders risks and is calculated as follows: […]

[1] = 50 mg q.d. non responders switching to 100 mg q.d., week 1
[2] = 50 mg q.d. non responders switching to 100 mg q.d., week 2
[3] = 50 mg q.d. non responders switching to 100 mg q.d., week 4
[4] = 50 mg q.d. non responders switching to 100 mg q.d., week 8
[5] = 50 mg q.d. non responders switching to 100 mg q.d., week 12
[6] = 50 mg q.d. non responders switching to 100 mg q.d., week 16
[7] = 50 mg q.d. non responders switching to 100 mg q.d., week 20
[8] = 50 mg q.d. non responders switching to 100 mg q.d., week 24

O=C(Nc1nc2cccc(-c3ccc(CN4CCS(=O)(=O)CC4)cc3)n2n1)C1CC1 [Compound 1, cyclopropanecarboxylic acid {5-[4-(1,1-dioxo-thiomorpholin-4-ylmethyl)-phenyl]-[1,2,4]triazolo[1,5-a]pyridin-2yl}-amide]
Atherogenic index Mean percentage CFB - 24 weeks results [1]: −0.49% | Atherogenic index Median CFB - 24 weeks results [1]: 0.00 mmol/L | Atherogenic index Median percentage CFB - 24 weeks results [1]: 0.00% | Atherogenic index Mean percentage CFB - 24 weeks results [2]: 0.40% | Atherogenic index Median CFB - 24 weeks results [2]: -0.10 mmol/L | Atherogenic index Median percentage CFB - 24 weeks results [2]: −2.38% | Atherogenic index Median CFB - 24 weeks results [3]: -0.20 mmol/L | Atherogenic index Median percentage CFB - 24 weeks results [3]: −6.67% | Atherogenic index Mean percentage CFB - 24 weeks results [4]: 3.03% | Atherogenic index Median CFB - 24 weeks results [4]: -0.20 mmol/L | Atherogenic index Median percentage CFB - 24 weeks results [4]: −6.82% | Atherogenic index Mean percentage CFB - 24 weeks results [5]: −2.71% | Atherogenic index Median CFB - 24 weeks results [5]: -0.20 mmol/L | Atherogenic index Median percentage CFB - 24 weeks results [5]: −5.88% | Atherogenic index Mean percentage CFB - 24 weeks results [6]: −3.31% | Atherogenic index Median CFB - 24 weeks results [6]: -0.20 mmol/L | Atherogenic index Median percentage CFB - 24 weeks results [6]: −5.00% | Atherogenic index Mean percentage CFB - 24 weeks results [7]: −3.58% | Atherogenic index Median CFB - 24 weeks results [7]: -0.20 mmol/L | Atherogenic index Median percentage CFB - 24 weeks results [7]: −5.88% | Atherogenic index Mean percentage CFB - 24 weeks results [8]: −7.04% | Atherogenic index Median CFB - 24 weeks results [8]: -0.30 mmol/L | Atherogenic index Median percentage CFB - 24 weeks results [8]: −9.97% | Atherogenic index Mean percentage CFB - 24 weeks results (50 mg q.d. responders, week 1): −0.34% | Atherogenic index Median CFB - 24 weeks results (50 mg q.d. responders, week 1): -0.10 mmol/L | Atherogenic index Mean percentage CFB - 24 weeks results (50 mg q.d. responders, week 2): −3.56% | Atherogenic index Median CFB - 24 weeks results (50 mg q.d. responders, week 2): -0.05 mmol/L | Atherogenic index Mean percentage CFB - 24 weeks results (50 mg q.d. responders, week 4): −2.87% | Atherogenic index Median CFB - 24 weeks results (50 mg q.d. responders, week 4): -0.25 mmol/L | Atherogenic index Median percentage CFB - 24 weeks results (50 mg q.d. responders, week 4): −7.69% | Atherogenic index Mean percentage CFB - 24 weeks results (50 mg q.d. responders, week 8): −2.06% | Atherogenic index Median CFB - 24 weeks results (50 mg q.d. responders, week 8): -0.10 mmol/L | Atherogenic index Mean percentage CFB - 24 weeks results (50 mg q.d. responders, week 12): 0.89% | Atherogenic index Median CFB - 24 weeks results (50 mg q.d. responders, week 12): -0.10 mmol/L | Atherogenic index Median percentage CFB - 24 weeks results (50 mg q.d. responders, week 12): −2.56% | Atherogenic index Mean percentage CFB - 24 weeks results (50 mg q.d. responders, week 16): 1.59% | Atherogenic index Median CFB - 24 weeks results (50 mg q.d. responders, week 16): 0.00 mmol/L | Atherogenic index Median percentage CFB - 24 weeks results (50 mg q.d. responders, week 16): 0.00% | Atherogenic index Median CFB - 24 weeks results (50 mg q.d. responders, week 20): -0.20 mmol/L | Atherogenic index Median percentage CFB - 24 weeks results (50 mg q.d. responders, week 20): −4.04% | Atherogenic index Median CFB - 24 weeks results (50 mg q.d. responders, week 24): -0.20 mmol/L | Atherogenic index Median percentage CFB - 24 weeks results (50 mg q.d. responders, week 24): −5.77% | Atherogenic index Mean CFB - 12 weeks results (50 mg q.d., week 1): 0.00 mmol/L | Atherogenic index Mean percentage CFB - 12 weeks results (50 mg q.d., week 1): −0.38% | Atherogenic index Median CFB - 12 weeks results (50 mg q.d., week 1): 0.00 mmol/L | Atherogenic index Median percentage CFB - 12 weeks results (50 mg q.d., week 1): 0.00% | Atherogenic index Mean CFB - 12 weeks results (50 mg q.d., week 2): -0.10 mmol/L | Atherogenic index Median CFB - 12 weeks results (50 mg q.d., week 2): -0.10 mmol/L | Atherogenic index Median percentage CFB - 12 weeks results (50 mg q.d., week 2): −2.38% | Atherogenic index Mean CFB - 12 weeks results (50 mg q.d., week 4): -0.13 mmol/L | Atherogenic index Mean percentage CFB - 12 weeks results (50 mg q.d., week 4): −2.63% | Atherogenic index Median CFB - 12 weeks results (50 mg q.d., week 4): -0.20 mmol/L | Atherogenic index Median percentage CFB - 12 weeks results (50 mg q.d., week 4): −7.69% | Atherogenic index Mean CFB - 12 weeks results (50 mg q.d., week 8): -0.03 mmol/L | Atherogenic index Mean percentage CFB - 12 weeks results (50 mg q.d., week 8): −0.95% | Atherogenic index Median CFB - 12 weeks results (50 mg q.d., week 8): -0.10 mmol/L | Atherogenic index Median percentage CFB - 12 weeks results (50 mg q.d., week 8): −2.70% | Atherogenic index Mean CFB - 12 weeks results (50 mg q.d., week 12): 0.01 mmol/L | Atherogenic index Mean percentage CFB - 12 weeks results (50 mg q.d., week 12): 0.09% | Atherogenic index Median CFB - 12 weeks results (50 mg q.d., week 12): -0.10 mmol/L | Atherogenic index Median percentage CFB - 12 weeks results (50 mg q.d., week 12): −3.85% | Atherogenic index Mean CFB - 12 weeks results (100 mg q.d., week 1): -0.05 mmol/L | Atherogenic index Mean percentage CFB - 12 weeks results (100 mg q.d., week 1): −0.84% | Atherogenic index Mean percentage CFB - 24 weeks results (100 mg q.d., week 1): −0.84% | Atherogenic index Median CFB - 12 weeks results (100 mg q.d., week 1): 0.00 mmol/L | Atherogenic index Median CFB - 24 weeks results (100 mg q.d., week 1): 0.00 mmol/L | Atherogenic index Median percentage CFB - 12 weeks results (100 mg q.d., week 1): 0.00% | Atherogenic index Median percentage CFB - 24 weeks results (100 mg q.d., week 1): 0.00% | Atherogenic index Mean CFB - 12 weeks results (100 mg q.d., week 2): -0.11 mmol/L | Atherogenic index Mean percentage CFB - 12 weeks results (100 mg q.d., week 2): −2.82% | Atherogenic index Mean percentage CFB - 24 weeks results (100 mg q.d., week 2): −2.82% | Atherogenic index Median CFB - 12 weeks results (100 mg q.d., week 2): -0.20 mmol/L | Atherogenic index Median CFB - 24 weeks results (100 mg q.d., week 2): -0.20 mmol/L | Atherogenic index Median percentage CFB - 12 weeks results (100 mg q.d., week 2): −6.25% | Atherogenic index Median percentage CFB - 24 weeks results (100 mg q.d., week 2): −6.25% | Atherogenic index Mean CFB - 12 weeks results (100 mg q.d., week 4): -0.19 mmol/L | Atherogenic index Mean percentage CFB - 12 weeks results (100 mg q.d., week 4): −4.17% | Atherogenic index Mean percentage CFB - 24 weeks results (100 mg q.d., week 4): −4.17%
